Tests used:
U-2932 cells = experiment: SILAC phosphoproteomic analysis
Description: For differential SILAC encoding, both cells were grown in arginine- and lysine-deficient culture medium containing light (Arg0/Lys0) or heavy (Arg10/Lys8) isotopic forms of L-arginine and L-lysine (SILAC medium). […] For mass spectrometric analysis, phosphopeptide-enriched samples were loaded onto a reversed phase analytical column, resolved by an acetonitrile gradient using a nanoflow HPLC system and directly electrosprayed via a nanoelectrospray ion source into an LTQ-Orbitrap Velos mass spectrometer (Thermo Fisher Scientific). […] A false discovery rate (FDR) of 0.01 was selected for protein and peptide identification, and a posterior error probability of ≤0.1 for each peptide-to-spectral match was required. The resulting list of phosphosites exported from the MaxQuant software was filtered for class-I sites (only serine, threonine, or tyrosine assignments with a localization probability of ≥0.75) [33] and used for all subsequent biostatistical analysis. […] Gaussian regression analysis on the histogram plot of these log2-transformed ratios was performed using Sigmaplot (version 10.0; Systat Software Inc.). The obtained values for the mean and standard deviation across the whole quantitative dataset were used to determine thresholds for significant regulation of at least ±2.5 σ. […] Furthermore, only phosphosites conforming to this criterion and showing consistent regulation in both biological replicates were considered as regulated.

RIPK2 = RIPK2 (Homo sapiens, UniProt O43353); experiment: KINOMEscan binding assay; details: 300 nM; read-out: inhibition of kinase binding (KINOMEscan)
RIPK2, sequence (O43353 whole entry): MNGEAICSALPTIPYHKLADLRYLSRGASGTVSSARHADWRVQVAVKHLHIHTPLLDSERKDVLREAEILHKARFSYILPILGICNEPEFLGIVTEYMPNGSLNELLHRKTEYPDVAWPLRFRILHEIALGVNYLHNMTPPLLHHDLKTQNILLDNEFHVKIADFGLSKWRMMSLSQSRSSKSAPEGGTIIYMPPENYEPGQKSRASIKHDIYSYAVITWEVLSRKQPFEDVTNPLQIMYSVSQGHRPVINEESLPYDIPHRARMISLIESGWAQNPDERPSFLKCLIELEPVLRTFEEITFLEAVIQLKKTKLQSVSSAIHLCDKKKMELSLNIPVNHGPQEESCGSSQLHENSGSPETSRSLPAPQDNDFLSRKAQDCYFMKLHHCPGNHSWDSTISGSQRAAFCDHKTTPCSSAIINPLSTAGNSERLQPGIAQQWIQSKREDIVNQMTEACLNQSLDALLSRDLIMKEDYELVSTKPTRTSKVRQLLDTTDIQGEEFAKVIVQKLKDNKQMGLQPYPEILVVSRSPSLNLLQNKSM

CC#CC(=O)N1CC[C@@H](n2c(=O)n(-c3ccc(Oc4ccccc4)cc3)c3c(N)ncnc32)C1 [Tirabrutinib]
number of downregulated (suppressed) phosphorylation sites (U-2932 cells; 1 μM, 1 h, ratio <0.664): 30 | number of upregulated (induced) phosphorylation sites (U-2932 cells; 1 μM, 1 h, ratio >1.506): four | Tirabrutinib/ctrl. rep. 1 (U-2932 cells; AKT1S1 S88): 1.16 | Tirabrutinib/ctrl. rep. 2 (U-2932 cells; AKT1S1 S88): 1.03 | Tirabrutinib/ctrl. rep. 1 (U-2932 cells; AKT1S1 S183): 0.86 | Tirabrutinib/ctrl. rep. 2 (U-2932 cells; AKT1S1 S183): 0.93 | Tirabrutinib/ctrl. rep. 2 (U-2932 cells; AKT1S1 T97): 0.84 | Tirabrutinib/ctrl. rep. 1 (U-2932 cells; AKT1S1 T246): 0.84 | Tirabrutinib/ctrl. rep. 2 (U-2932 cells; AKT1S1 T246): 0.87 | Tirabrutinib/ctrl. rep. 2 (U-2932 cells; AKT1 S124): 0.96 | Tirabrutinib/ctrl. rep. 1 (U-2932 cells; AKT2 S126): 1.09 | Tirabrutinib/ctrl. rep. 2 (U-2932 cells; AKT2 S126): 0.97 | Tirabrutinib/ctrl. rep. 1 (U-2932 cells; ATF2 S90): 0.87 | Tirabrutinib/ctrl. rep. 2 (U-2932 cells; ATF2 S90): 0.93 | Tirabrutinib/ctrl. rep. 1 (U-2932 cells; ATF2 S112): 1.02 | Tirabrutinib/ctrl. rep. 2 (U-2932 cells; ATF2 S112): 1.00 | Tirabrutinib/ctrl. rep. 1 (U-2932 cells; ATF2 T71): 0.99 | Tirabrutinib/ctrl. rep. 2 (U-2932 cells; ATF2 T71): 0.86 | Tirabrutinib/ctrl. rep. 1 (U-2932 cells; ATF2 T73): 0.69 | Tirabrutinib/ctrl. rep. 2 (U-2932 cells; CARD11 S483): 1.78 | Tirabrutinib/ctrl. rep. 1 (U-2932 cells; CARD11 S610): 0.99 | Tirabrutinib/ctrl. rep. 2 (U-2932 cells; CARD11 S610): 0.96 | Tirabrutinib/ctrl. rep. 1 (U-2932 cells; CARD11 S903): 1.10 | Tirabrutinib/ctrl. rep. 2 (U-2932 cells; CARD11 S903): 1.31 | Tirabrutinib/ctrl. rep. 1 (U-2932 cells; CARD11 S910): 1.78 | Tirabrutinib/ctrl. rep. 2 (U-2932 cells; CARD11 S910): 0.95 | Tirabrutinib/ctrl. rep. 1 (U-2932 cells; CARD11 S942): 0.96 | Tirabrutinib/ctrl. rep. 2 (U-2932 cells; CARD11 S942): 0.97 | Tirabrutinib/ctrl. rep. 1 (U-2932 cells; ERF S21): 0.26 | Tirabrutinib/ctrl. rep. 1 (U-2932 cells; HSP27 S78): 1.14 | Tirabrutinib/ctrl. rep. 2 (U-2932 cells; HSP27 S78): 0.79 | Tirabrutinib/ctrl. rep. 1 (U-2932 cells; HSP27 S82): 1.09 | Tirabrutinib/ctrl. rep. 2 (U-2932 cells; HSP27 S82): 0.76 | Tirabrutinib/ctrl. rep. 1 (U-2932 cells; HSP27 S86): 0.81 | Tirabrutinib/ctrl. rep. 2 (U-2932 cells; HSP27 S86): 1.16 | Tirabrutinib/ctrl. rep. 1 (U-2932 cells; IKBKB S550): 0.86 | Tirabrutinib/ctrl. rep. 2 (U-2932 cells; IKBKB S550): 0.97 | Tirabrutinib/ctrl. rep. 1 (U-2932 cells; IKBKB S672): 1.04 | Tirabrutinib/ctrl. rep. 2 (U-2932 cells; IKBKB S672): 1.20 | Tirabrutinib/ctrl. rep. 1 (U-2932 cells; IKBKG S455): 1.15 | Tirabrutinib/ctrl. rep. 2 (U-2932 cells; IKBKG S455): 0.87 | Regulation of Phosphorylation Site (U-2932 cells; MAPK1 T185): ↓ | Tirabrutinib/ctrl. rep. 1 (U-2932 cells; MAPK1 T185): 0.23 | Tirabrutinib/ctrl. rep. 2 (U-2932 cells; MAPK1 T185): 0.41 | Regulation of Phosphorylation Site (U-2932 cells; MAPK1 Y187): ↓ | Tirabrutinib/ctrl. rep. 1 (U-2932 cells; MAPK1 Y187): 0.23 | Tirabrutinib/ctrl. rep. 2 (U-2932 cells; MAPK1 Y187): 0.41 | Tirabrutinib/ctrl. rep. 1 (U-2932 cells; NHE1 S602): 0.96 | Tirabrutinib/ctrl. rep. 2 (U-2932 cells; NHE1 S602): 0.92 | Tirabrutinib/ctrl. rep. 1 (U-2932 cells; NHE1 S605): 0.95 | Tirabrutinib/ctrl. rep. 2 (U-2932 cells; NHE1 S605): 0.92 | Tirabrutinib/ctrl. rep. 1 (U-2932 cells; NHE1 S785): 1.08 | Tirabrutinib/ctrl. rep. 2 (U-2932 cells; NHE1 S785): 1.26 | Tirabrutinib/ctrl. rep. 1 (U-2932 cells; NHE1 S796): 0.80 | Tirabrutinib/ctrl. rep. 2 (U-2932 cells; NHE1 S796): 0.78 | Tirabrutinib/ctrl. rep. 1 (U-2932 cells; PEA15 S82): 0.89 | Tirabrutinib/ctrl. rep. 2 (U-2932 cells; PEA15 S82): 0.86 | Tirabrutinib/ctrl. rep. 1 (U-2932 cells; PEA15 S137): 1.18 | Tirabrutinib/ctrl. rep. 2 (U-2932 cells; PEA15 S137): 1.03 | Tirabrutinib/ctrl. rep. 1 (U-2932 cells; PIK3AP1 S642): 1.22 | Tirabrutinib/ctrl. rep. 2 (U-2932 cells; PIK3AP1 S642): 0.88 | Tirabrutinib/ctrl. rep. 1 (U-2932 cells; PIK3AP1 T151): 1.02 | Tirabrutinib/ctrl. rep. 2 (U-2932 cells; PIK3AP1 T151): 1.07 | Tirabrutinib/ctrl. rep. 1 (U-2932 cells; PLCG2 S341): 0.84 | Tirabrutinib/ctrl. rep. 2 (U-2932 cells; PLCG2 S341): 1.25 | Tirabrutinib/ctrl. rep. 1 (U-2932 cells; PLCG2 S871): 0.99 | Tirabrutinib/ctrl. rep. 2 (U-2932 cells; PLCG2 S871): 0.98 | Tirabrutinib/ctrl. rep. 1 (U-2932 cells; PLCG2 S1236): 1.17 | Tirabrutinib/ctrl. rep. 2 (U-2932 cells; PLCG2 S1236): 0.99 | Tirabrutinib/ctrl. rep. 1 (U-2932 cells; PRKCB T497): 0.99 | Tirabrutinib/ctrl. rep. 2 (U-2932 cells; PRKCB T497): 1.00 | Tirabrutinib/ctrl. rep. 1 (U-2932 cells; PRKCB T500): 0.99 | Tirabrutinib/ctrl. rep. 2 (U-2932 cells; PRKCB T500): 1.00 | Tirabrutinib/ctrl. rep. 1 (U-2932 cells; PRKCB T641): 1.02 | Tirabrutinib/ctrl. rep. 2 (U-2932 cells; PRKCB T641): 1.00 | Tirabrutinib/ctrl. rep. 1 (U-2932 cells; PRKD2 S189): 0.90 | Tirabrutinib/ctrl. rep. 2 (U-2932 cells; PRKD2 S189): 0.70 | Tirabrutinib/ctrl. rep. 1 (U-2932 cells; PRKD2 S206): 0.86 | Tirabrutinib/ctrl. rep. 2 (U-2932 cells; PRKD2 S206): 0.83 | Tirabrutinib/ctrl. rep. 1 (U-2932 cells; PRKD2 S375): 0.91 | Tirabrutinib/ctrl. rep. 2 (U-2932 cells; PRKD2 S375): 0.81 | Tirabrutinib/ctrl. rep. 1 (U-2932 cells; PRKD2 S706): 0.77 | Tirabrutinib/ctrl. rep. 2 (U-2932 cells; PRKD2 S706): 0.50 | Tirabrutinib/ctrl. rep. 1 (U-2932 cells; PRKD2 S710): 0.90 | Tirabrutinib/ctrl. rep. 2 (U-2932 cells; PRKD2 S710): 0.77 | Tirabrutinib/ctrl. rep. 2 (U-2932 cells; PRKD3 S6): 0.88 | Tirabrutinib/ctrl. rep. 2 (U-2932 cells; PRKD3 S27): 0.99 | Tirabrutinib/ctrl. rep. 1 (U-2932 cells; PRKD3 S30): 0.97 | Tirabrutinib/ctrl. rep. 1 (U-2932 cells; PRKD3 S31): 0.99 | Tirabrutinib/ctrl. rep. 2 (U-2932 cells; PRKD3 S31): 0.97 | Tirabrutinib/ctrl. rep. 1 (U-2932 cells; PRKD3 S44): 1.09 | Tirabrutinib/ctrl. rep. 2 (U-2932 cells; PRKD3 S44): 1.04 | Tirabrutinib/ctrl. rep. 1 (U-2932 cells; PRKD3 S213): 1.29 | Tirabrutinib/ctrl. rep. 2 (U-2932 cells; PRKD3 S213): 1.25 | Tirabrutinib/ctrl. rep. 2 (U-2932 cells; PRKD3 S364): 1.20 | Tirabrutinib/ctrl. rep. 1 (U-2932 cells; PRKD3 S376): 0.80 | Tirabrutinib/ctrl. rep. 2 (U-2932 cells; PRKD3 S376): 0.94 | Tirabrutinib/ctrl. rep. 1 (U-2932 cells; PRKD3 S391): 0.99 | Tirabrutinib/ctrl. rep. 2 (U-2932 cells; PRKD3 S391): 0.97 | Tirabrutinib/ctrl. rep. 2 (U-2932 cells; PRKD3 S543): 1.05 | Tirabrutinib/ctrl. rep. 1 (U-2932 cells; PRKD3 S731): 0.72 | Tirabrutinib/ctrl. rep. 2 (U-2932 cells; PRKD3 S731): 0.48 | Tirabrutinib/ctrl. rep. 1 (U-2932 cells; PRKD3 S735): 0.85 | Tirabrutinib/ctrl. rep. 2 (U-2932 cells; PRKD3 S735): 0.77 | Tirabrutinib/ctrl. rep. 1 (U-2932 cells; RAF1 S12): 1.45 | Tirabrutinib/ctrl. rep. 2 (U-2932 cells; RAF1 S12): 0.88 | Tirabrutinib/ctrl. rep. 2 (U-2932 cells; RAF1 S316): 0.94 | Tirabrutinib/ctrl. rep. 1 (U-2932 cells; RAF1 S377): 0.98 | Tirabrutinib/ctrl. rep. 2 (U-2932 cells; RAF1 S377): 1.08 | Tirabrutinib/ctrl. rep. 1 (U-2932 cells; RAF1 S641): 1.04 | Tirabrutinib/ctrl. rep. 2 (U-2932 cells; RAF1 S641): 0.98 | Tirabrutinib/ctrl. rep. 2 (U-2932 cells; RAF1 T661): 0.73 | Tirabrutinib/ctrl. rep. 1 (U-2932 cells; RELA S238): 1.26 | Tirabrutinib/ctrl. rep. 2 (U-2932 cells; RELA S238): 0.86 | Tirabrutinib/ctrl. rep. 1 (U-2932 cells; RPS6KA1 S230): 0.99 | Tirabrutinib/ctrl. rep. 2 (U-2932 cells; RPS6KA1 S230): 0.99 | Tirabrutinib/ctrl. rep. 1 (U-2932 cells; RPS6KA1 S389): 1.55 | Tirabrutinib/ctrl. rep. 2 (U-2932 cells; RPS6KA1 S389): 1.00 | Tirabrutinib/ctrl. rep. 1 (U-2932 cells; RPS6KA1 S741): 1.16 | Tirabrutinib/ctrl. rep. 2 (U-2932 cells; RPS6KA1 S741): 0.87 | Tirabrutinib/ctrl. rep. 1 (U-2932 cells; TSC2 S1132): 1.15 | Tirabrutinib/ctrl. rep. 2 (U-2932 cells; TSC2 S1132): 0.89 | Tirabrutinib/ctrl. rep. 1 (U-2932 cells; TSC2 S1254): 0.44 | Tirabrutinib/ctrl. rep. 2 (U-2932 cells; TSC2 S1254): 0.70 | Tirabrutinib/ctrl. rep. 1 (U-2932 cells; TSC2 S1336): 1.59 | Tirabrutinib/ctrl. rep. 2 (U-2932 cells; TSC2 S1336): 1.33 | Tirabrutinib/ctrl. rep. 1 (U-2932 cells; TSC2 S1346): 1.14 | Tirabrutinib/ctrl. rep. 2 (U-2932 cells; TSC2 S1346): 1.02 | Tirabrutinib/ctrl. rep. 1 (U-2932 cells; TSC2 S1364): 0.82 | Tirabrutinib/ctrl. rep. 2 (U-2932 cells; TSC2 S1364): 0.98 | Tirabrutinib/ctrl. rep. 1 (U-2932 cells; TSC2 S1385): 1.01 | Tirabrutinib/ctrl. rep. 2 (U-2932 cells; TSC2 S1385): 1.30 | Tirabrutinib/ctrl. rep. 1 (U-2932 cells; TSC2 S1411): 0.93 | Tirabrutinib/ctrl. rep. 2 (U-2932 cells; TSC2 S1411): 0.98 | Tirabrutinib/ctrl. rep. 2 (U-2932 cells; TSC2 S1420): 0.93 | Tirabrutinib/ctrl. rep. 2 (U-2932 cells; TSC2 S1448): 1.43 | Tirabrutinib/ctrl. rep. 1 (U-2932 cells; TSC2 S1449): 1.16 | Tirabrutinib/ctrl. rep. 1 (U-2932 cells; TSC2 S1452): 1.16 | Tirabrutinib/ctrl. rep. 2 (U-2932 cells; TSC2 S1452): 1.04 | Tirabrutinib/ctrl. rep. 1 (U-2932 cells; TSC2 S1798): 0.76 | Tirabrutinib/ctrl. rep. 2 (U-2932 cells; TSC2 S1798): 0.73 | Tirabrutinib/ctrl. rep. 2 (U-2932 cells; YBX1 S2): 0.99 | Tirabrutinib/ctrl. rep. 2 (U-2932 cells; YBX1 S3): 0.99 | Tirabrutinib/ctrl. rep. 1 (U-2932 cells; YBX1 S165): 0.98 | Tirabrutinib/ctrl. rep. 2 (U-2932 cells; YBX1 S165): 0.91 | Tirabrutinib/ctrl. rep. 1 (U-2932 cells; YBX1 S167): 0.91 | Tirabrutinib/ctrl. rep. 2 (U-2932 cells; YBX1 S167): 1.13 | inhibition at 0.3 µM (RIPK2): 67%

Reference: publication PMC10004634 (PLOS ONE, 2023)
